We go through 86 compounds from a melting point compilation (Tetko et al.; mined from patent text by program, amines drawn as free bases though some values may be those of a salt).

`CC(NCCN(CCNC(C)=C1C(=O)CC(C)(C)CC1=O)C(=O)CCC(=O)O)=C1C(=O)CC(C)(C)CC1=O`: the melting point – broadly, the temperature of the solid-liquid transition – was 65 to 68 °C.

Take `Cn1ncc2c1=CC1=CC=C(N)C(=O)C=21`: the melting point fell in the range of 225 to 227 °C.

As for `CCCC(=O)NN=C(C)c1ccncc1Cl`, the melting point was found to be 104 °C.

The compound `CCOC(=O)C(Cc1ccccc1)(C(=O)Nc1ccc(Cl)cc1)c1ccccc1` (stereo unspecified) displayed a melting point of 83 to 85 °C.

`CC(C)(C)c1ccc(N(CCCOc2ccc(C(=O)O)cc2)C(=O)c2ccc3c(c2)OCO3)cc1`: the melting point is 199 to 203 °C.

`CN(C)C=Nc1cnc(-c2cccc(CO)c2)nc1` registered a melting point of 105 to 106 °C.

Regarding `O=S(=O)(Cc1ccc(O)cc1)Cc1ccc(O)cc1`, the melting point stood at 92 °C.

`C=C(C)C(=O)c1ccc2c(c1)oc(=O)n2C`: the melting point is 127 °C.

As to `C[C@@H]1Cc2cc3c(cc2C(c2ccc(Cl)cc2)=NN1C1=NCCS1)OCO3`, the melting point fell in the range of 216 to 219 °C.

`CC[C@]12CC[C@H]3[C@@H](CC(=C(Br)Br)C4=CC(=O)CC[C@@H]43)[C@@H]1CCC2=O` had a melting point of 149 to 153 °C.

For the compound `CCCN(CCC)c1c(CC)nn2c(-c3ccc(OC)cc3C)cccc12`, the melting point was 76 to 79 °C.

`Cn1nc(N)c2sc3ncccc3c21` gave a melting point of 194 to 196 °C.

`CC(=O)c1cccc(N2C(=O)CCSC2=S)c1`: the melting point lay within 197 to 199 °C.

`Cn1cnc(COc2ccc(-c3cc(-c4c[nH]nc4-c4ccccn4)ccn3)cc2)c1` gave a melting point of 104 °C.

`CCOC(=O)C(C(=O)OCC)C(N)c1ccc(Cl)cc1C(N)C(C(=O)OCC)C(=O)OCC` (stereo unspecified): the melting point fell in the range of 90 to 92 °C.

In the case of `CCOC(=O)C=Cc1ccc(C=CC(=O)OCC)c2ccccc12`, the melting point lay in the range of 90 to 91 °C.

In turn, `CC(O)c1ccc(-c2ccc(OCc3ccc(Cl)cc3)cc2)cc1` (single isomer, unassigned; (+)) returned a melting point of 165 to 167 °C.

Consider `CP(C)(=O)CN1CCN(c2n[nH]c3ccccc23)CC1`, for which the melting point lay in the range of 223 to 225 °C.

Regarding `O=S(=O)(Nc1ccc(Oc2cccc3cccnc23)c(Cl)c1)c1ccc(Cl)cc1`, the melting point amounted to 198 °C.

`Nc1ccc2nc(N)sc2c1` came in with a melting point of 202 to 203 °C.

Take `CCOc1nc(C)nc(N2CCc3ccccc3CC2)c1[N+](=O)[O-]`: the melting point lay in the range of 145 to 147 °C.

In turn, `CCc1cn(C2CC(O)C(CNC)O2)c(=O)[nH]c1=O` (stereo unspecified) displayed a melting point of 145 to 147 °C.

`CC(C)(C)OC(=O)NCC(=O)Nn1cccc1C(=O)c1ccccc1Cl` yielded a melting point of 156 to 158 °C.

The compound `CCCCC(C#N)(Cn1ccnc1)c1ccc(S(=O)c2ccccc2)cc1` (stereo unspecified) yielded a melting point of 55 to 61 °C.

As for `COC(=O)c1nc2ccc(NCCCN3CCC(OC(c4ccccc4)c4ccccc4)CC3)nn2n1`, the melting point is 93 to 96 °C.

In the case of `CCOC(=O)c1cc(OC)c(OCC)c(OCC)c1-c1c(C(=O)OCC)cc(OC)c2c1OCO2`, the melting point is 73 to 74.5 °C.

As to `CC(C)(O)C(O)c1ccc(-c2ccc(/C(=C/C3CCOCC3)c3ccc(S(=O)(=O)C4CC4)cc3)[nH]2)nc1` (stereo unspecified), the melting point fell in the range of 196 to 197 °C.

In turn, `Cc1ccc(CC(=O)NC(NC(=NC#N)Nc2cccnc2C)C(C)(C)C)cc1F` (stereo unspecified) displayed a melting point of 75 to 77 °C.

`OC(CNC1=NCCCN1)c1ccccc1` (stereo unspecified) displayed a melting point of 188 °C.

On to `CCn1ncc2c(NCC3CCCCC3)c3cc(OCC4CO4)ccc3nc21` (stereo unspecified), for which the melting point lay in the range of 160 to 163 °C.

`CC(=O)Nc1ccc(C#Cc2ccc(C3CC4CCCC(C3)N4C)nn2)cc1` (stereo unspecified) returned a melting point of 270 to 271 °C.

For the compound `O=C(O)COc1ccc2cc(-c3sc4ccccc4c3C(=O)Cc3ccccc3)ccc2c1Br`, the melting point lay within 170 to 172 °C.

The compound `Cc1ccccc1C(=NO)C(=O)OC(C)C` returned a melting point of 77 to 78 °C.

On to `O=C(NC(=O)c1c(F)cccc1F)Nc1ccc2c(c1)C(F)(F)C(F)(F)O2`, for which the melting point lay within 183 to 184 °C.

Turning to `OC(c1ccccc1)(c1ccccc1)C(c1ccc(OCc2ccccc2)cc1)n1ccnc1` (stereo unspecified), the melting point came to 204 °C.

`O=[N+]([O-])c1ccc(CN2CCCC(O)c3ncccc32)cc1` (stereo unspecified) came in with a melting point of 182 to 185 °C.

`COC(=O)c1cc(NC(C)C)c2cc(Cc3ccc(F)cc3)cnc2c1O`: the melting point was 121 to 122 °C.

Regarding `CCOC(=O)CC(NC(=O)c1cc(NC(=O)OC(C)(C)C)cc(OCc2ccccc2)c1)c1ccccc1` (racemic), the melting point turned out to be 115 °C.

The compound `CCCc1nc2c(N)nc3cccnc3c2n1CCCCN(OC)C(=O)Nc1ccccc1` registered a melting point of 155 to 156 °C.

The compound `O=C1NC2C(CC(O)C(O)C2O)c2cc3c(c(O)c21)OCO3` (stereo unspecified) showed a melting point of 182 °C.

`Cc1cc(C)c(N2CCC2=O)cc1NS(=O)(=O)C(F)(F)F` showed a melting point of 137 to 139 °C.

Regarding `CCOC(=O)C(O)CSc1ccc(-c2ccccc2)cc1` (stereo unspecified), the melting point stood at 102 °C.

`CSC1=Nc2ccccc2C2=NCC(CC3CNCCC34CCCCC4)N12` (stereo unspecified): the melting point was in the range of 114 to 115 °C.

With `CCOC(=O)c1cn(-c2cccc(Oc3ccc([N+](=O)[O-])cc3)c2)cn1`, the melting point is 162 to 163 °C.

The compound `OC1(COc2cccc3ccccc23)CCN(Cc2ccccc2)C1` (stereo unspecified) showed a melting point of 130 °C.

Regarding `c1ccc(C2CN=C3Sc4ccccc4N32)cc1` (stereo unspecified), the melting point came to 132 °C.

With `Cc1cccc(C2=NN=C(c3ccccc3Cc3ccccc3)NN2)c1`, the melting point fell in the range of 162 to 163 °C.

`CNC1CN(c2nc3c(cc2F)c(=O)c(C(=O)O)cn3C2CC2)C1`: the melting point was 206 to 212 °C.

In turn, `CC(=O)NC(CCC(=O)c1c(F)cccc1F)c1ccc(Br)cc1` (stereo unspecified) yielded a melting point of 162 to 163 °C.

`CCCCN(CCCC)c1ccc(N=O)cc1`: the melting point fell in the range of 122 to 124 °C.

`CC(C)CN1C(=O)C(NC(=O)c2cc3ccccc3[nH]2)N=C(N2CCCCCC2)c2ccccc21` (single isomer, unassigned; (-)) yielded a melting point of 240 to 241 °C.

Compound `Cc1ccc(Cl)c(NS(=O)(=O)c2nc(C)n(-c3ncccn3)n2)c1Cl` displayed a melting point of 214 to 216 °C.

In the case of `O=C(NC(C(=O)O)c1ccccc1)c1ccccc1SSc1ccccc1C(=O)NC(C(=O)O)c1ccccc1` (stereo unspecified), the melting point is 231 to 232 °C.

In the case of `Cc1cc(O)nc(C=Cc2ccccc2)n1`, the melting point is 217 to 219 °C.

The compound `CC(=O)c1ccc(C2=C(c3ccc(S(C)(=O)=O)cc3)OC(C)(C)C2=O)cc1` registered a melting point of 164 to 167 °C.

Take `COc1ccc(-c2nn(CC=Cc3ccccc3)c(=O)cc2-c2ccccc2)cc1`: the melting point was in the range of 136 to 137 °C.

The compound `COc1cc2nc(N)nc(-c3ccc(I)cc3)c2cc1OC` gave a melting point of 240 to 242 °C.

Compound `Cc1cn(-c2nc(C3=Nc4ccc(-c5ccccc5F)cc4NC(=O)C3)cs2)cn1` came in with a melting point of 229 °C.

Compound `Cc1cc(C)c2nc(C3CC3)n(Cc3ccc(C(CC(=O)O)c4ccccc4)cc3)c2n1` (stereo unspecified) came in with a melting point of 189 to 190 °C.

On to `CCCCc1nc2c(N)nc3cccnc3c2n1CCCCN`, for which the melting point is 212 to 213 °C.

In turn, `CON=C(c1ccccc1COc1cccc(Cl)c1)n1ccnc1` returned a melting point of 96.5 to 97.5 °C.

Compound `Cc1cc(C)cc(CN(C)C2CCCn3c2c(-c2ccccc2)c2cc(C)c(C)cc2c3=O)c1` (stereo unspecified) returned a melting point of 144 to 145 °C.

Compound `O=C1NCC1NC(=O)C(C(=O)OCc1ccccc1)c1ccccc1` (stereo unspecified) gave a melting point of 164 to 166 °C.

`O=C(Nc1ccc(C(=O)N2CCc3sc(Cc4c[nH]cn4)nc3-c3ccccc32)cc1)c1ccccc1-c1ccccc1` returned a melting point of 192 to 195 °C.

In turn, `NC(=O)C(CCCCCc1ccc(Cl)cc1)C(=O)O` (stereo unspecified) registered a melting point of 125 to 126 °C.

As for `CCCCCCC(=O)N1C(C)Cc2ccccc2C1CNC(=O)c1cc(OC)c(OC)c(OC)c1` (stereo unspecified), the melting point is 161 to 163 °C.

Regarding `COc1ccc(-c2cc(=O)n(C)c(=O)[nH]2)cc1OC`, the melting point was in the range of 262 to 263 °C.

As to `CCOC(=O)CNc1c(C)cc(C(O)(C(F)(F)Cl)C(F)(F)Cl)cc1C`, the melting point fell in the range of 102 to 104 °C.

Consider `CCNC(=S)NS(=O)(=O)c1cc(CCNC(=O)C=Cc2ccc(OC)cc2OC)ccc1OCCOC`, for which the melting point lay in the range of 146 to 148 °C.

`CCCCOC(=O)Cc1ccc(CNS(=O)(=O)c2ccccc2)cc1` yielded a melting point of 60.5 to 61 °C.

On to `CC(C)(C)c1ccc(CCC(O)CC2CCCCC2)cc1NC(=O)CC1c2ccccc2Oc2ccccc21` (stereo unspecified), for which the melting point fell in the range of 141 to 142 °C.

`CCCc1c(OCCCCCCOc2ccc(C(=O)c3cccc(C(=O)OCC)c3)cc2CCC(=O)OCC)ccc2c1OCCC2=O` came in with a melting point of 58 to 59.5 °C.

`CC(C)(C)OC(=O)NCC(=O)c1ccccc1` had a melting point of 63 to 65 °C.

On to `NC[C@@H]1CCc2cc(S(=O)(=O)Nc3ccc(-n4ccn(CCCC5CCCCC5)c4=O)cc3)ccc2O1`, for which the melting point lay in the range of 108 to 110 °C.

In turn, `CN(O)C(=O)Nc1c(C(=O)c2ccccc2)[nH]c2cc(Cl)ccc12` gave a melting point of 208 to 214 °C.

With `CC(C)(O)c1ccc(-c2cnc3[nH]c(=O)n(CC4CCCCC4)c3n2)cn1`, the melting point was above 250 °C.

`C=C1CC(C)(O)CCC2=C(C)CCC12` (stereo unspecified): the melting point came out at 54 °C.

Take `Oc1nc2ccccc2n2c(C(F)(F)F)nnc12`: the melting point was above 300 °C.

The compound `CCOC(=O)Cc1ccc2c(c1)CC(NC(=O)OC)CC2` (stereo unspecified) yielded a melting point of 89 to 90 °C.

`Clc1ccc(C2CCc3cc(Cl)ccc3O2)cc1` (stereo unspecified) had a melting point of 99 to 100 °C.

In turn, `Cc1cnc2nc(NS(=O)(=O)c3ccccc3Cl)nn2c1` returned a melting point of 236 to 239 °C.

The compound `CC(=O)Nc1nc(CSc2ccc([N+](=O)[O-])cc2)cs1` had a melting point of 165 to 166 °C.

`CCCCc1nc2c(N)nc3cc(-c4ccccc4)ccc3c2n1CCCS(C)(=O)=O` yielded a melting point of 214 to 216 °C.

In the case of `COc1ccc(Cl)c(S(=O)(=O)NC(=O)c2nc3c(Cl)cc(C(F)(F)F)cn3c2C)c1`, the melting point was 222 to 223 °C.

As for `COc1ccc(-c2c(C(=O)O)c(CSc3nccn3C)nc3cc(OC)c(OC)cc23)cc1OC`, the melting point was in the range of 213 to 214 °C.

`O=C(O)c1cccc2c1Cc1c-2[nH]c2ccc(F)cc12` registered a melting point above 300 °C.
